According to ChEMBL document CHEMBL5537185, “Discovery of the First-in-Class RORγ Covalent Inhibitors for Treatment of Castration-Resistant Prostate Cancer” (J Med Chem, 2024):

What was measured:
[1] = biological target: T1, Nuclear receptor ROR-gamma (Homo sapiens, UniProt P51449); assay: Inhibition of Gal4-fused RORgamma LBD (unknown origin) expressed in HEK293T cells incubated for 48 hrs by luciferase based assay; format: cell-based
T1 sequence (P51449 whole entry): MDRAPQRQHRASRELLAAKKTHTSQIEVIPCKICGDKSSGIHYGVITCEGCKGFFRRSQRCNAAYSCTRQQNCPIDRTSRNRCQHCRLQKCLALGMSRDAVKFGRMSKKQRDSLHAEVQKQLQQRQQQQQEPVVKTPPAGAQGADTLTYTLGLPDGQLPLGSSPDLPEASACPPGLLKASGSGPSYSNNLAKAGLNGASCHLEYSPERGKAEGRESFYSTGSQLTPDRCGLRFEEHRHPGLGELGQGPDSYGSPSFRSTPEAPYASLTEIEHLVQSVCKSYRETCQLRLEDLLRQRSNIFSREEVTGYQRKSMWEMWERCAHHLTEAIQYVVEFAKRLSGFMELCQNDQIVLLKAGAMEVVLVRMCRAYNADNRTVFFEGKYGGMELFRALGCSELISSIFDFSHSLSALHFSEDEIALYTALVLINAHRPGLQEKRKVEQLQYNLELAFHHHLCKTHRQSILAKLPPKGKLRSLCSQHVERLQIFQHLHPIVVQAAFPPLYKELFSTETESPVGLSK

LNCaP = assay: Antiproliferative activity against human LNCaP cells incubated for 4 days by CCK8 assay; details: 96 h
[2] = Metabolic stability in mouse liver microsomes assessed as half life at 0.1 uM preincubated for 10 mins followed by NADPH addition and measured upto 60 mins by LC-MS/MS analysis; format: ADME, Microsome; details: time < 70 min
CWR22R = assay: Antiproliferative activity against human 22Rv1 cells incubated for 4 days by CCK8 assay; details: 22Rv1, 96 h
LNCaP C4-2B = assay: Antiproliferative activity against human LNCaP C4-2B cells incubated for 4 days by CCK8 assay; details: 96 h

Row | Compound | IC50 [1] | IC50 (LNCaP) | half-life at 0.1 µM [2] | IC50 (LNCaP C4-2B) | IC50 (CWR22R)
1 | C=CC(=O)Nc1ccccc1-c1ccc(NC(=O)c2cnc(C)nc2)cc1C | 2.58 µM | – | – | – | –
2 | C=CC(=O)Nc1ccccc1-c1ccc(NC(=O)c2ccc(S(C)(=O)=O)cn2)cc1C | 5.44 µM | – | – | – | –
3 | C=CC(=O)Nc1ccccc1-c1ccc(NC(=O)c2cccc(C#N)c2)cc1C | > 20 µM | – | – | – | –
4 | C=CC(=O)Nc1ccccc1-c1ccc(NS(=O)(=O)Cc2ccc([N+](=O)[O-])cc2)cc1C | 6.61 µM | – | – | – | –
5 | C=CC(=O)Nc1ccccc1-c1ccc(NC(=O)c2ccc(S(C)(=O)=O)cc2)cc1C | 5.71 µM | – | – | – | –
6 | C=CC(=O)Nc1ccccc1-c1ccc(NC(=O)Cc2ccc(C#N)cc2)cc1C | 2.32 µM | – | – | – | –

Now from value to compound, other results behind:

Row | IC50 [1] | IC50 (LNCaP) | half-life at 0.1 µM [2] | IC50 (LNCaP C4-2B) | Compound | IC50 (CWR22R)
7 | – | 0.92 µM | 10 min | 0.99 µM | C=CC(=O)Nc1ccccc1-c1ccc(NC(=O)Cc2ccc(S(=O)(=O)CC)cc2)cc1C | 2.25 µM
8 | 1.63 µM | – | – | – | C/C=C/C(=O)Nc1ccccc1-c1ccc(NC(=O)Cc2ccc(S(=O)(=O)CC)cc2)cc1C | –
9 | 1.1 µM | 0.53 µM | 8.17 min | 0.73 µM | C=CC(=O)Nc1ccccc1-c1ccc(NC(=O)Cc2ccc(S(=O)(=O)CC)cc2)cc1F | 1.44 µM
10 | 4.08 µM | – | – | – | C=CC(=O)Nc1ccccc1-c1ccc(NC(=O)Cc2ccc(S(=O)(=O)CC)cc2)cc1 | –
11 | – | > 10 µM | – | > 10 µM | CCC(=O)Nc1ccccc1-c1ccc(NC(=O)Cc2ccc(S(=O)(=O)CC)cc2)cc1Cl | > 10 µM
